Test [1] relates to GDNF mRNA and protein levels in the mouse brain. Conditions: cited from earlier work.
The test system of a further test is reserpine-treated rat. Conditions: cited from earlier work.
Test [2] concerns 6-OHDA lesioned nigrostriatal tract. Conditions: cited from earlier work.
For a further test, the system named is SOD1G93A mice. Conditions: cited from earlier work.
The test system of another test is spinal cord GDNF levels. Conditions: cited from earlier work.
For test [3], the system named is cultured spinal cord astrocytes. Conditions: wild-type and mGlu2 knockout mice, not mGlu3 knockout; cited from earlier work.
Test [4] deals with nigro-striatal damage induced by 1-methyl-4-phenyl-1,2,3,6-tetrahydropyridine in mice. Conditions: acute or repeated 0.25 or 3 mg/kg i.p.; tyrosine hydroxylase-positive neuron count; cited from earlier work.
The subject of another test is R6/2 mice. Conditions: cited from earlier work.
In the next test the test system is SMI-32+ motor neurons. Conditions: abrogated by anti-GDNF antibodies; cited from earlier work.
The test system of a further test is cocaine-seeking in rats. Conditions: systemic injections; cited from earlier work.
For another test, the system named is cocaine craving. Conditions: preliminary results in humans; cited from earlier work.
Another test deals with T1, Rat mGlu3 (Rattus norvegicus, UniProt P31422).
T1 construct: expressed in transfected cells; host or cells: HEK-293 co-expressing GIRK channels
In words: mGlu receptor in vitro assay (thallium flux through GIRK channels / calcium assay), rat mGlu3. It is filed as cell-based. Conditions: PAM potency with EC20 glutamate. Put shortly: (§1)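 HEK-293 cells co-expressing rat mGlu2 or mGlu3 and GIRK, dye-loaded with FluoZin2-AM, compound added about 2.5 min before thallium buffer with EC20 glutamate; potency from the 5-15 s fluorescence slope, 10-point 4-parameter fit. Calcium assay at mGlu3 used TREx293 mGlu3 Gα15 cells induced with tetracycline 20 ng/mL for 20 h.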

Another test deals with T2, Rat mGlu2 (Rattus norvegicus, UniProt P31421).
T2 construct: expressed in transfected cells; host or cells: HEK-293 co-expressing GIRK channels
In words: mGlu receptor in vitro assay, thallium flux through GIRK channels, rat mGlu2. It is filed as cell-based. Conditions: PAM potency with EC20 glutamate. Put shortly: as §1

The target of the next test is Human mGlu3 (Homo sapiens, UniProt Q14832). In words: mGlu receptor in vitro assay, human mGlu3. Type of test: cell-based.
In the next test the target is Human mGlu2 (Homo sapiens, UniProt Q14416). In words: mGlu receptor in vitro assay, human mGlu2. Type of test: cell-based.
Human mGlu2, sequence (Q14416 19-872): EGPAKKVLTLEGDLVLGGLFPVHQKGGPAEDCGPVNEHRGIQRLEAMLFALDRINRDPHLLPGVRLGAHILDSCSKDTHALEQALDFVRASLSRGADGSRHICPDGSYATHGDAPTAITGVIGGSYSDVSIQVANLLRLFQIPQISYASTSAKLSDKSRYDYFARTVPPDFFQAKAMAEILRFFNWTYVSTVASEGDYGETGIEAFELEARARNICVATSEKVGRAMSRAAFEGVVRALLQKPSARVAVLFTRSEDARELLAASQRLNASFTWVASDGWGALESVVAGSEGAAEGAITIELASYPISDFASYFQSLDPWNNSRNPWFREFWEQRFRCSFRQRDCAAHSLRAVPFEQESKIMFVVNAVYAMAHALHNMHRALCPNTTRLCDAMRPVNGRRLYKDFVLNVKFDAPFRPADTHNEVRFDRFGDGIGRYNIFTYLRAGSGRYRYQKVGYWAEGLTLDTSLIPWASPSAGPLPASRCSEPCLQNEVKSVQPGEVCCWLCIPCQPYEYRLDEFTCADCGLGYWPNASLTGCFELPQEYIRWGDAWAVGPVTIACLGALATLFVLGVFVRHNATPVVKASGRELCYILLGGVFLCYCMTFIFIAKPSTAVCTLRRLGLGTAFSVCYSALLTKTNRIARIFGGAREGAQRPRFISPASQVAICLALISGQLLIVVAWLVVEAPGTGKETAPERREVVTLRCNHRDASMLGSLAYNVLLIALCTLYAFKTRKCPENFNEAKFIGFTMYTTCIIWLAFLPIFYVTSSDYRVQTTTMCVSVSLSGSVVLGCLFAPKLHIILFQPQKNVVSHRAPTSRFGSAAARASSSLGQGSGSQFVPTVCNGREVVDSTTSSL

Human mGlu3, sequence (Q14832 23-879): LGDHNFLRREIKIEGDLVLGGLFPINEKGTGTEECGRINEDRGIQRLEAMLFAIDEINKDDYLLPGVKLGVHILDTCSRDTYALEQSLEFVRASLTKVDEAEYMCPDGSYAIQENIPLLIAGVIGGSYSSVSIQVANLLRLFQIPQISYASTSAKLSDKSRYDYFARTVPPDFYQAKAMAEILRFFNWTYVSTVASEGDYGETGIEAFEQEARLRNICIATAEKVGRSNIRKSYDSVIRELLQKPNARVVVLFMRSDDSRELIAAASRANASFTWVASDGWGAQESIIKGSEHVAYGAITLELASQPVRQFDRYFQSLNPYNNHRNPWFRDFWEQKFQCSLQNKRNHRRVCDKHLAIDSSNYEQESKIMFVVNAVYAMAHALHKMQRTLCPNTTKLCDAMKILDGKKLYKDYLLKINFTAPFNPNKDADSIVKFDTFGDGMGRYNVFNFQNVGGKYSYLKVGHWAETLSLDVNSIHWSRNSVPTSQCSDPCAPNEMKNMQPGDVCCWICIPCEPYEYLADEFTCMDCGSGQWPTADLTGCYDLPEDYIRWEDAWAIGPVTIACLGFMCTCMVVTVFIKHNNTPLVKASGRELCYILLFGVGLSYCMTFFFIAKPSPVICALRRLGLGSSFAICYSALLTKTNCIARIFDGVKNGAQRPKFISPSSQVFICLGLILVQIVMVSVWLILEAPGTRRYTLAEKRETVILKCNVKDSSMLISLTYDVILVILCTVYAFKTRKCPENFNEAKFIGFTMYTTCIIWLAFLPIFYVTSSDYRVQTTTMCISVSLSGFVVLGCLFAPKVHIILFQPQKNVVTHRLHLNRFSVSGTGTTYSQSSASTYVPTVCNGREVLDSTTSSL
T1 sequence (P31422 23-879): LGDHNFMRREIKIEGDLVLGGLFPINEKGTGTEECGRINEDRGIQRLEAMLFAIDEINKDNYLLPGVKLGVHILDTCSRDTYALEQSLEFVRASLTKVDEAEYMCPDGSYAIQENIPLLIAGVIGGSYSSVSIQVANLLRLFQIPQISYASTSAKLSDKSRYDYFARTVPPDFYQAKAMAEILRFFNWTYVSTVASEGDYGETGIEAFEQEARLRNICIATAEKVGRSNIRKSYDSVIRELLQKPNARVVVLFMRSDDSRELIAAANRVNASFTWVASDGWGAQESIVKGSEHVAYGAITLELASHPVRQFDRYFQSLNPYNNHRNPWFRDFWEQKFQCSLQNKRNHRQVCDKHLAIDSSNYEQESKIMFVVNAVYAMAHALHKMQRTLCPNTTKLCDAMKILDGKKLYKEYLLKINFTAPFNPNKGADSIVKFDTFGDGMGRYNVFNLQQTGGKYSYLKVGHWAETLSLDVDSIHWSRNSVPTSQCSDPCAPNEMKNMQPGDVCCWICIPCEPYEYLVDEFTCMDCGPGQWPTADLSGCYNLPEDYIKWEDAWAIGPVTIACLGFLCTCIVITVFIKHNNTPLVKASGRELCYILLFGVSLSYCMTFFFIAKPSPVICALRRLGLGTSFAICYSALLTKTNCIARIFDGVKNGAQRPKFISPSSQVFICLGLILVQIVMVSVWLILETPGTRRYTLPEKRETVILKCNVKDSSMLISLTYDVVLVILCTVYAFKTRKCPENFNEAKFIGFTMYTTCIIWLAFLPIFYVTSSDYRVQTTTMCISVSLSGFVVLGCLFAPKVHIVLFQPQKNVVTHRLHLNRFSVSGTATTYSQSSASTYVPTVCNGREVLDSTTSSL
T2 sequence (P31421 19-872): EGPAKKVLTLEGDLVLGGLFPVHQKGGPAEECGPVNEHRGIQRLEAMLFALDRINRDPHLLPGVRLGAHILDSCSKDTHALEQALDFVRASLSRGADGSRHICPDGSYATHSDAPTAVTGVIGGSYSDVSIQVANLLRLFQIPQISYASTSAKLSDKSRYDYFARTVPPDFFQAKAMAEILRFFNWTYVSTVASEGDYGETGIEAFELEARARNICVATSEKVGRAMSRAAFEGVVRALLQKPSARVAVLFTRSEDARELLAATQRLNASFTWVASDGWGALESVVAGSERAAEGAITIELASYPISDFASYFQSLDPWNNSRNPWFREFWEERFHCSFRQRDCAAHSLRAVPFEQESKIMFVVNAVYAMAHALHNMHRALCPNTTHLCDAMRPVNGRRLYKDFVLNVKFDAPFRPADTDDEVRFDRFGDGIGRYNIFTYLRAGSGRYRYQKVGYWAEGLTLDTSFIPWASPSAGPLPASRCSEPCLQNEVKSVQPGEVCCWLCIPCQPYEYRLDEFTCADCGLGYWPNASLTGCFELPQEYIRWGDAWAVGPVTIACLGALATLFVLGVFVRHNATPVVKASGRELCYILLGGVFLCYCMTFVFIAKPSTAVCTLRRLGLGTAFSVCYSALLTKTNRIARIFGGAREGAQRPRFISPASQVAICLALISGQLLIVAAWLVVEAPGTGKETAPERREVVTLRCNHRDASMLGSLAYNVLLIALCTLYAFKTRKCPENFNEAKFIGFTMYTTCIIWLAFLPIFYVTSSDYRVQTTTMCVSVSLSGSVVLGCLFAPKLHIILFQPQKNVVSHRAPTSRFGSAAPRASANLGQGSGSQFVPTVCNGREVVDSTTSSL

`N[C@@]1(C(=O)O)CO[C@H]2[C@H](C(=O)O)[C@H]21` [LY379268]: the “GDNF mRNA and protein levels” value in test [1] (0.25-3 mg/kg i.p.) is “increased”. Also, in test [1] (after injection), the “time of peak GDNF mRNA levels” value is recorded as 3 h. In addition, the locomotor activity entry in the test with reserpine-treated rat (intracerebroventricular 1, 5, 10, 20 nmol, reserpine 5 mg/kg ip) is given as “dose-dependent increase in locomotor activity”. Also, in the test on reserpine-treated rat (systemic 0.1, 1, 10 mg/kg ip), the reserpine-induced akinesia result is on record as “did not reverse reserpine-induced akinesia”. Moreover, in test [2] (10 mg/kg/day ip, 7 days), the “protection against nigral infusion of 6-OHDA” value is listed as “some protection”. The “protection against striatal infusion of 6-OHDA” value in [2] (10 mg/kg/day ip, 21 days, striatum) is reported as “significant protection in the striatum”. Moreover, the rotational behaviour entry in [2] (systemic 0.1, 1, 10 mg/kg ip, 1 month after unilateral 6-OHDA lesion) was “failed to effect rotational behaviour”. Moreover, the neurological disability result in the test with SOD1G93A mice (continuous treatment 1 or 5 mg/kg/day) is on record as “beneficial effect on neurological disability”. In the test on SOD1G93A mice (day 40 of treatment), the “spinal cord motor neurons (SMI-32+ cell count)” value is listed as “rescued spinal cordmotor neurons”. For the same compound, the “tolerance to GDNF-enhancing effect” value in the test on spinal cord GDNF levels (28 days s.c. osmotic minipumps, 0.5-5 mg/day) is recorded as “No tolerance developed”. Also, the “spinal cord GDNF levels” value with spinal cord GDNF levels (acute 0.5, 1 or 5 mg/kg i.p., wild-type and mGlu2 knockout mice, not mGlu3 knockout) is “enhanced spinal cord GDNF levels”. Further, the “expression of glutamate transporter GLT-1 in spinal cord” value with spinal cord GDNF levels (continuous infusion) is “enhanced the expression”. Besides, the “GDNF levels in astrocytes” value in [3] is “enhanced GDNF levels”. Further, the “protection against nigro-striatal damage” value in test [4] is given as “highly protective”. Besides, in the test with R6/2 mice (20 mg/kg daily s.c., at 10 weeks), the striatal neuron loss entry was “rescue of a 15-20% striatal neuron loss”. Besides, in the test with R6/2 mice (20 mg/kg daily s.c., distance traveled, speed, pauses, straight-line locomotion), the motor function entry is given as “normalization of motor function”. In addition, the “phenotype in R6/2 mice” value with R6/2 mice (20 mg/kg daily subcutaneous, beginning at 4 weeks) is listed as “dramatically improves the phenotype”. In the test with SMI-32+ motor neurons, the “protection of motor neurons against excitotoxic death” value was “protected”.
For `CC(=O)N[C@@H](CS)C(=O)O` [N-acetylcysteine], the reinstatement of cocaine-seeking entry with cocaine-seeking in rats is recorded as “attenuated”. For the same compound, the cocaine craving entry in the test with cocaine craving was “attenuated cocaine craving”.
For `COc1ccc(-c2cnc(COc3ccc(C(=O)CC(C)(C)C)c(O)c3C)cn2)cc1C(=O)O` [compound 128, 5-(5-((4-(3,3-Dimethylbutanoyl)-3-hydroxy-2-methylphenoxy)methyl)pyrazin-2-yl)-2-methoxybenzoic acid], the 50% effective concentration (EC50) at Rat mGlu3 came to 104 nM; on Rat mGlu2 it was 430 nM; at Human mGlu3, 148 nM; on Human mGlu2, 297 nM.
`COc1cc(F)c(C(=O)O)cc1-c1cnc(COc2ccc(C(=O)CC(C)(C)C)c(O)c2C)cn1` [compound 130, 5-(5-((4-(3,3-Dimethylbutanoyl)-3-hydroxy-2-methylphenoxy)methyl)pyrazin-2-yl)-2-fluoro-4-methoxybenzoic acid]: the EC50 was 53 nM at Rat mGlu3, 254 nM on Rat mGlu2, 31 nM on Human mGlu3 and 76 nM on Human mGlu2.
Take `COc1ccc(C(=O)O)cc1OCCCCOc1ccc(C(=O)CC(C)(C)C)c(O)c1` [compound 132, 3-(4-(4-(3,3-Dimethylbutanoyl)-3-hydroxyphenoxy)butoxy)-4-methoxybenzoic acid]: the EC50 on Rat mGlu3 came out at 309 nM; on Rat mGlu2 it was 403 nM; on Human mGlu3 it was 114 nM; on Human mGlu2, 129 nM.
For `Cc1c(OCc2nc(-c3cccc(C(=O)O)c3)no2)ccc(C(=O)CC(C)(C)C)c1O` [compound 133, 3-(5-((4-(3,3-Dimethylbutanoyl)-3-hydroxy-2-methylphenoxy)methyl)-1,2,4-oxadiazol-3-yl)benzoic acid], the EC50 on Rat mGlu3 came to 247 nM; on Rat mGlu2, 268 nM; at Human mGlu3, 79 nM; at Human mGlu2, 74 nM.
As to `CCCC(=O)c1ccc(OCc2nc(-c3cccc(C(=O)O)c3)no2)c(C)c1O` [compound 135, 3-(5-((4-Butyryl-3-hydroxy-2-methylphenoxy)methyl)-1,2,4-oxadiazol-3-yl)benzoic acid], the EC50 on Rat mGlu3 came out at 660 nM; on Rat mGlu2, 106 nM; at Human mGlu3, 748 nM; on Human mGlu2, 133 nM.
On to `Cc1c(C(=O)O)cccc1-c1cccc(COc2ccc(C(=O)CC(C)(C)C)c(O)c2C)c1` [compound 160, 3′-((4-(3,3-Dimethylbutanoyl)-3-hydroxy-2-methylphenoxy)methyl)-2-methyl-[1,1′-biphenyl]-3-carboxylic acid], for which the EC50 at Rat mGlu3 was determined as 855 nM; on Rat mGlu2, 92 nM; on Human mGlu3 it was 1480 nM; on Human mGlu2 it was 203 nM.
As to `Cc1c(OCc2cccc(-c3cccc(C(=O)NC#N)c3)c2)ccc(C(=O)CC(C)(C)C)c1O` [compound 162, N-Cyano-3′-((4-(3,3-dimethylbutanoyl)-3-hydroxy-2-methylphenoxy)methyl)-[1,1′-biphenyl]-3-carboxamide], the EC50 on Rat mGlu3 is 145 nM; at Rat mGlu2 it was 166 nM; on Human mGlu3, 593 nM; at Human mGlu2, 234 nM.

As usually defined, the EC50 is the concentration giving half of the maximal effect.

The values above are taken from patent publication US20250179000A1 (Sanford Burnham Prebys Medical Discovery Institute, priority 2021, published 2025).
